From ChEMBL document CHEMBL5465560, “Selectivity Literature for EUbOPEN Chemogenomic Library” (2024)
One block for each compound: values may come before it.

Assays:
[1] = target: T1, Cytoplasmic tyrosine-protein kinase BMX (Homo sapiens) (UniProt P51813); conditions: at 10 µM
T1 sequence (whole entry): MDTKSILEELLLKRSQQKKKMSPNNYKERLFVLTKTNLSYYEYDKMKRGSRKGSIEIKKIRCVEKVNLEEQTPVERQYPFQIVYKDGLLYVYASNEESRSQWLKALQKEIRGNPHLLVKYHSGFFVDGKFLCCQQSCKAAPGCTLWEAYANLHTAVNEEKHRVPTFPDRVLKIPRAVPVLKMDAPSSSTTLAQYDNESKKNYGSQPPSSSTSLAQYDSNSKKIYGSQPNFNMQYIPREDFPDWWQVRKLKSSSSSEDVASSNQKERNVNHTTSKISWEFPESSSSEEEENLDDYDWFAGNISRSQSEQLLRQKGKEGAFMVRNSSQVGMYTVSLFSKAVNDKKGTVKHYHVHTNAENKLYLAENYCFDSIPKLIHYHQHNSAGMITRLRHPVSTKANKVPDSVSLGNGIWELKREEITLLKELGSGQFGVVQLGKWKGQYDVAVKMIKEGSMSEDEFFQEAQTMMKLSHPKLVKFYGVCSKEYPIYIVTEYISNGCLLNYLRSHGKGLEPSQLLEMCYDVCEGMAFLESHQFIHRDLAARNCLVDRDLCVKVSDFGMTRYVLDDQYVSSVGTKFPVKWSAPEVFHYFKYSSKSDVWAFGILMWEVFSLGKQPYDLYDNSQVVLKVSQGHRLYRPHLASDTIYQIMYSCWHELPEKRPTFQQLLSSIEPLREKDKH

[2] = test system: T2, Receptor-type tyrosine-protein kinase FLT3 (Homo sapiens), P36888 [D835H]; conditions: at 10 µM
T2 sequence (whole entry): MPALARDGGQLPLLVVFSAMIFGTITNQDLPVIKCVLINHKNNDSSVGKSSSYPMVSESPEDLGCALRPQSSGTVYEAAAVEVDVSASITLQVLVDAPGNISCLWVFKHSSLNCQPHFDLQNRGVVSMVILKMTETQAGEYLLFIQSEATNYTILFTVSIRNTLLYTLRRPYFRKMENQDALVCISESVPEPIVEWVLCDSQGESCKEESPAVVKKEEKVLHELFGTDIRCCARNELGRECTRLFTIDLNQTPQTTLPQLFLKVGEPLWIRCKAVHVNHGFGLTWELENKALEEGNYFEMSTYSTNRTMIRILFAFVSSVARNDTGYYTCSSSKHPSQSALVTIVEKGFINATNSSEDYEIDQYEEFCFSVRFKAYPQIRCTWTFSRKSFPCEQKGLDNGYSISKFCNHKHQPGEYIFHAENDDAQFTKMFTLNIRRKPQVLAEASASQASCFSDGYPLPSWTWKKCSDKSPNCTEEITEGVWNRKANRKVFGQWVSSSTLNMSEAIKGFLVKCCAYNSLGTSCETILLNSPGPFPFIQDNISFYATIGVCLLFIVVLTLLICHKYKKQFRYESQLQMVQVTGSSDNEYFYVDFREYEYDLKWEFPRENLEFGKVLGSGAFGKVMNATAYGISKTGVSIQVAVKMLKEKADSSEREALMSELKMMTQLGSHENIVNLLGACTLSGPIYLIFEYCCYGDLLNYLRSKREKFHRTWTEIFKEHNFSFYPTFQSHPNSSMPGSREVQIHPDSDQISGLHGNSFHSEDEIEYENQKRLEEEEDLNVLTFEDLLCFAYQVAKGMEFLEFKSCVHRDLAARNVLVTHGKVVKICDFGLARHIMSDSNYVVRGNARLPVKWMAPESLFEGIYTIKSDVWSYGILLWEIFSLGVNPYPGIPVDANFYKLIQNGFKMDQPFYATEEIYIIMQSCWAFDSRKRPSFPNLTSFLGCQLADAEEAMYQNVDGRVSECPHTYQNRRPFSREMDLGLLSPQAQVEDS

[3] = target: T3, cAMP-dependent protein kinase catalytic subunit PRKX (Homo sapiens) (UniProt P51817); experiment: Selectivity interaction (Ambit KINOMEscan and KiNATiv profiling in Jurkat cells) EUB0000090b PRKX; type: cell-based; conditions: at 1 µM
T3 sequence (whole entry): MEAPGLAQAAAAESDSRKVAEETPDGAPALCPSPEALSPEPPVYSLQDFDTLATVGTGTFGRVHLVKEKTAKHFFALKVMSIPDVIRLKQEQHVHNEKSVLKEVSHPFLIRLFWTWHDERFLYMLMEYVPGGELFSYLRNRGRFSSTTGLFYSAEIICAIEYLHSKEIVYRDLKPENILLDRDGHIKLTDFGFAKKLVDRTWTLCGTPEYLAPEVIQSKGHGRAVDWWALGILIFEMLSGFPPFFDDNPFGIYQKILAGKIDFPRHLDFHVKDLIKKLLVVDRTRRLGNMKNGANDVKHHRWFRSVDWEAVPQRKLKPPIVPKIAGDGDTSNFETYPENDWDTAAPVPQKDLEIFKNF

[4] = target: T4, Calcium/calmodulin-dependent protein kinase type IV (Homo sapiens) (UniProt Q16566); conditions: at 10 µM
T4 sequence (whole entry): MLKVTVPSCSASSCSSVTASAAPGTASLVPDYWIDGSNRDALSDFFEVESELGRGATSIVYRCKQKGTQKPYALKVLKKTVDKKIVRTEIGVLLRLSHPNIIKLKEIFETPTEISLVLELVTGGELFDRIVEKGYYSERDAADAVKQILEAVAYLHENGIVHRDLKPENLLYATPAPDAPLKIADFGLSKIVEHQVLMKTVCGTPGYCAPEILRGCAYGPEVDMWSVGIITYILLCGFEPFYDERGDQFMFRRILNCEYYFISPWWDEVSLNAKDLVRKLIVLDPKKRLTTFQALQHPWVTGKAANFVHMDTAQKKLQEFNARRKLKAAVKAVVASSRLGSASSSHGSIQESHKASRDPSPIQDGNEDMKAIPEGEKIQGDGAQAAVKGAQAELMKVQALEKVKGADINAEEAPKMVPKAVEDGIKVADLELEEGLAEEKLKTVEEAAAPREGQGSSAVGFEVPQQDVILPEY

[5] = target: Ephrin type-A receptor 2 (Homo sapiens) (UniProt P29317); experiment: Selectivity interaction (KinomeScan (DiscoverX)) EUB0000595a EPHA2; conditions: at 10 µM
[6] = test system: EML4-ALK (Homo sapiens), Q9UM73+Q9HC35 [UNDEFINED MUTATION]; experiment: (§1) Selectivity interaction (ProQinase) EUB0000171b ALK; type: protein assay; conditions: at 5 µM
[7] = target: EML4-ALK (Homo sapiens) (UniProt Q9UM73+Q9HC35); experiment: as §1; type: protein assay
[8] = test system: NPM/ALK (Nucleophosmin/ALK tyrosine kinase receptor) (Homo sapiens), Q9UM73+P06748 [F1174L]; experiment: as §1; type: protein assay
[9] = target: Ribosomal protein S6 kinase alpha-2 (Homo sapiens) (UniProt Q15349); experiment: Selectivity interaction (KinomeScan (DiscoverX)) EUB0000618a RPS6KA2; conditions: at 10 µM
[10] = target: Phosphatidylinositol 4-phosphate 5-kinase type-1 alpha (Homo sapiens) (UniProt Q99755); experiment: Selectivity interaction (KinomeScan (DiscoverX)) EUB0000607a PIP5K1A; conditions: at 10 µM

EML4-ALK (Homo sapiens), sequence (Q9HC35 whole entry partner): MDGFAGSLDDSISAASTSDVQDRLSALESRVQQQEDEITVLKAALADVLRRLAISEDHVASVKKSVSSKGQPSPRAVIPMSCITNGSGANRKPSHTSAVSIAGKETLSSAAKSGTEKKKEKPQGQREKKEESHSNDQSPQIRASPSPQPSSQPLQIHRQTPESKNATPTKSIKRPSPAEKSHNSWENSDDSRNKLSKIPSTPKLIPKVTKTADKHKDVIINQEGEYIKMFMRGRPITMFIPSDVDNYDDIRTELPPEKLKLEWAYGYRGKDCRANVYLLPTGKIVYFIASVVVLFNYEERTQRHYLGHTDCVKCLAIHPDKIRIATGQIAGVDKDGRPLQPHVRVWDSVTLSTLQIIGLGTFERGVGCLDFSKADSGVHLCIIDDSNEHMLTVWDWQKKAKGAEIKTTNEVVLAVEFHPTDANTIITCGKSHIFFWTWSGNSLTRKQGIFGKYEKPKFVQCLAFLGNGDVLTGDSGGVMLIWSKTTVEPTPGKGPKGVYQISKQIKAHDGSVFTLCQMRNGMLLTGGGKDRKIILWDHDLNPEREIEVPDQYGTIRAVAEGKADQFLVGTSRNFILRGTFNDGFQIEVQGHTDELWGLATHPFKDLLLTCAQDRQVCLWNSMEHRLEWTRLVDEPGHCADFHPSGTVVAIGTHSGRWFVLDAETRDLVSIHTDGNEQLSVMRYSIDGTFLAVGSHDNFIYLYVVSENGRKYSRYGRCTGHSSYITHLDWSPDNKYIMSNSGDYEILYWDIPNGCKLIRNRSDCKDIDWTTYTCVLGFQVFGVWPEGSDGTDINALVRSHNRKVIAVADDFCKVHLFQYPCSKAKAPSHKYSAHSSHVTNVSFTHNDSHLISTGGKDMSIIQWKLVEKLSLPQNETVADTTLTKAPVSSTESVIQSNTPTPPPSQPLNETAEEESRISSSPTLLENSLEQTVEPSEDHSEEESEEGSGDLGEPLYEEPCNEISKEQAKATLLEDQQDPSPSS
EML4-ALK (Homo sapiens), sequence (Q9UM73 19-1620 limits assumed): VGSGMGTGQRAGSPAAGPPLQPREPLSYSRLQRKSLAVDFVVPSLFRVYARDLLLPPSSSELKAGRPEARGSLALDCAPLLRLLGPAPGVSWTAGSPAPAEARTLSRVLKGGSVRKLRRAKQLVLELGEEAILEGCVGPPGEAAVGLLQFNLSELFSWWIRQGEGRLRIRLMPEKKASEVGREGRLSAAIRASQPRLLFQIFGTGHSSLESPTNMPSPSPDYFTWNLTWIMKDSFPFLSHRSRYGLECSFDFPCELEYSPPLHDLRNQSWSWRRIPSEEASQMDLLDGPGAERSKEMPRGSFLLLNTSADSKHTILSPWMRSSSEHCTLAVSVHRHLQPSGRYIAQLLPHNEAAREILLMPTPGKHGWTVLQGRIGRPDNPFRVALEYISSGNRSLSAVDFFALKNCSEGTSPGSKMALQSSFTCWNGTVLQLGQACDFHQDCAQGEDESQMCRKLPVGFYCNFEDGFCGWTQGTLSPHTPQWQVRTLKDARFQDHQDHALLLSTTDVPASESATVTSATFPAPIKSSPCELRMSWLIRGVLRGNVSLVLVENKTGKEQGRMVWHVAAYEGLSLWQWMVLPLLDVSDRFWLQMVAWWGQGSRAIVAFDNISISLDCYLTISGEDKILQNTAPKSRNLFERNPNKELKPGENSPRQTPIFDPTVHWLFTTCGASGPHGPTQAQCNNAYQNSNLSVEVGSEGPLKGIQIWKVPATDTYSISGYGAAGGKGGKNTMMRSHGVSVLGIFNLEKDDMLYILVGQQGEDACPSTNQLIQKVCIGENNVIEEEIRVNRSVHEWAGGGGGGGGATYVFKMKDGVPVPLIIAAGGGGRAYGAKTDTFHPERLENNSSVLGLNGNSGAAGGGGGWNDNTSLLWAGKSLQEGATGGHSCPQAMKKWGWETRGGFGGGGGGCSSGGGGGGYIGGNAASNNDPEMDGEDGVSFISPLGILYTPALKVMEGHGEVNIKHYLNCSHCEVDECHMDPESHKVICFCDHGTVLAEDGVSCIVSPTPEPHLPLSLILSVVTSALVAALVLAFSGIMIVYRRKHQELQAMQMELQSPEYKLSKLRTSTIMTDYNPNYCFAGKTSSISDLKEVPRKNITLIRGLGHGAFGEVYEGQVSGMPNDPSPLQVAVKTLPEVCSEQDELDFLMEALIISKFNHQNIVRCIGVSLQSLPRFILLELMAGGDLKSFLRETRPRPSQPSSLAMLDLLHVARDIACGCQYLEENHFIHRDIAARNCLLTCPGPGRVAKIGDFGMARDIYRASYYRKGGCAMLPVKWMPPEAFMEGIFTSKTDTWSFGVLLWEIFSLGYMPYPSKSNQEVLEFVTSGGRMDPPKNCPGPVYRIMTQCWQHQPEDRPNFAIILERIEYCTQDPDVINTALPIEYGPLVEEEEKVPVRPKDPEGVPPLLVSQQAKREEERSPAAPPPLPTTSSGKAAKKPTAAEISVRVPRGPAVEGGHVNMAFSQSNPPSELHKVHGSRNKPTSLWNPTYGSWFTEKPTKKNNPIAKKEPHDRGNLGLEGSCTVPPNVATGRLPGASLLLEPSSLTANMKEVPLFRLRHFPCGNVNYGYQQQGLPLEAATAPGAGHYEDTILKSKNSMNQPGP
Ribosomal protein S6 kinase alpha-2 (Homo sapiens), sequence (Q15349 whole entry): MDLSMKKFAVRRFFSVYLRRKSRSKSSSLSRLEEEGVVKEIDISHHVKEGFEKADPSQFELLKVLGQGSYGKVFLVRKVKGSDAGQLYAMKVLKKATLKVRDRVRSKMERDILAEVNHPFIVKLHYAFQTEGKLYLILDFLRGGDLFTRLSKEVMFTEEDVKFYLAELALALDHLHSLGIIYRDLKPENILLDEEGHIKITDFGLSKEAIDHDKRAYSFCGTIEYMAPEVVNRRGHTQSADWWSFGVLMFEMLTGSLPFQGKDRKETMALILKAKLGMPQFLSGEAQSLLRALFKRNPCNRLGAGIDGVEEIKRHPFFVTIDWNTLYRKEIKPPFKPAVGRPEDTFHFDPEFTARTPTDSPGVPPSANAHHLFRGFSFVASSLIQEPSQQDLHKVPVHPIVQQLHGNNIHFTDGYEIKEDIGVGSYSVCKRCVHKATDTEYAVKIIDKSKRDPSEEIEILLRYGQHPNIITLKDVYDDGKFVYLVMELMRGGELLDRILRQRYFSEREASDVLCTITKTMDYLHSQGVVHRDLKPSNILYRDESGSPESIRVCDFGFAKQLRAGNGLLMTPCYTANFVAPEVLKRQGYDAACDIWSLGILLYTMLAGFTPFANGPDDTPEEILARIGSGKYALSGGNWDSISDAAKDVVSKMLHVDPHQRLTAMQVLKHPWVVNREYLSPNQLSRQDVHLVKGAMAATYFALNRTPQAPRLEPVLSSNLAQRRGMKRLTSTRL
EML4-ALK (Homo sapiens), Q9UM73+Q9HC35 [UNDEFINED MUTATION], sequence (Q9HC35 whole entry, looked up, change not shown): as the sequence (Q9HC35 whole entry partner) above
EML4-ALK (Homo sapiens), Q9UM73+Q9HC35 [UNDEFINED MUTATION], sequence (Q9UM73 whole entry, looked up, change not shown): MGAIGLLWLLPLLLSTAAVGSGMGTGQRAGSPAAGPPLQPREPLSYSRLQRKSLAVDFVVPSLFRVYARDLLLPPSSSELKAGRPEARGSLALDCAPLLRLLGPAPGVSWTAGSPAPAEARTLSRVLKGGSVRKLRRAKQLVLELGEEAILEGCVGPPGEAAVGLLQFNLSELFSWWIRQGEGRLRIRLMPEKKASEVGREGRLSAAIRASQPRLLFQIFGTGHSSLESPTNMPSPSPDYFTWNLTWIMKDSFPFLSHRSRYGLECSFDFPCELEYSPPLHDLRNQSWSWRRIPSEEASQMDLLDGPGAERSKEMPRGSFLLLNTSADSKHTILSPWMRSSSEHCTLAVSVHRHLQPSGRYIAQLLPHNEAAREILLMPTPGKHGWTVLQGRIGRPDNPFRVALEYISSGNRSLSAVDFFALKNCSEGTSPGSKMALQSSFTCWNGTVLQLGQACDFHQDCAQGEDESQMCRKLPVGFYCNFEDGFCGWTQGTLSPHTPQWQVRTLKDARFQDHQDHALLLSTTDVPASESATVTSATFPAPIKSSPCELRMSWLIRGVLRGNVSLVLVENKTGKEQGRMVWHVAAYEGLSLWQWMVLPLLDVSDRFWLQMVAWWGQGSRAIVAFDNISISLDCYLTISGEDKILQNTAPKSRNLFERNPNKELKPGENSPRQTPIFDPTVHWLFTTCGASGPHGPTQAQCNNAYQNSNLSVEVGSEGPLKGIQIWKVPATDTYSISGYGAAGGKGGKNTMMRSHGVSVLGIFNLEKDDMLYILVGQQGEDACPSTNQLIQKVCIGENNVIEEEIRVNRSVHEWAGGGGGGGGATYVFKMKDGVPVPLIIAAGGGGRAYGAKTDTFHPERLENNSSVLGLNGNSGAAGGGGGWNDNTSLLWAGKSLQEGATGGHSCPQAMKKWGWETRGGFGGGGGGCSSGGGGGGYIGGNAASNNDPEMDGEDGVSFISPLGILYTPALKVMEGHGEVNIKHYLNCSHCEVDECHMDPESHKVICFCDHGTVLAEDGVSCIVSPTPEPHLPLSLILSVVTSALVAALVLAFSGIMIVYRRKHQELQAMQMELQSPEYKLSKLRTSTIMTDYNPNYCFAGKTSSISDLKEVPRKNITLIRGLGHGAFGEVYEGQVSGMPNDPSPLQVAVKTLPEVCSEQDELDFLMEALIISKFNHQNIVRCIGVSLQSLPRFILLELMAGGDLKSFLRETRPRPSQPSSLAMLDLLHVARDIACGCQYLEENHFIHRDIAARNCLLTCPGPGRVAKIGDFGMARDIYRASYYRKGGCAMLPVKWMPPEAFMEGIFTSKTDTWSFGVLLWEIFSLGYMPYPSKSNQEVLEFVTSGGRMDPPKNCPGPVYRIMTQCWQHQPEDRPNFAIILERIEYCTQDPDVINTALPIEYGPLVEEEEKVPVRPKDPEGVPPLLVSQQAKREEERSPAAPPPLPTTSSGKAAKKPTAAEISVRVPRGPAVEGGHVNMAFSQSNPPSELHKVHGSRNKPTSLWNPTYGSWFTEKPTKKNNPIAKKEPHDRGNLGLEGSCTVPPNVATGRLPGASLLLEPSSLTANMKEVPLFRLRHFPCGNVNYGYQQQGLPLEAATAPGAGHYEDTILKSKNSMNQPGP

SMILES: Cc1cc([C@@H](C)Nc2ccccc2C(=O)O)c2nc(N3CCOCC3)cc(=O)n2c1 [AZD-6482]
- % of control [1]: 85%
- % of control [2]: 27%

SMILES: CN(C)C/C=C/C(=O)Nc1ccc(C(=O)N2CCCC(Nc3ncc(Cl)c(-c4c[nH]c5ccccc45)n3)C2)cc1 (configuration not stated)
- % of control [3]: 89%

- % of control [4]: 100%
SMILES: CCN(CC)CCCCNc1ncc2cc(-c3cc(OC)cc(OC)c3)c(NC(=O)NC(C)(C)C)nc2n1

SMILES: COCC(=O)NC/C=C/c1ccc2ncnc(Nc3ccc(Oc4ccc(C)nc4)c(C)c3)c2c1 [CP-724714]
- % of control [5]: 100%

- % of control [6]: 80%
- % of control ([7]; at 1 µM): 91%
- % of control ([7]; at 5 µM): 89%
- % of control ([8]; at 1 µM): 104%
- % of control ([8]; at 5 µM): 106%
SMILES: C=CC(=O)Nc1cccc(C(=O)Nc2ccc(Nc3cc(-c4[nH]c(SC)nc4C)ccn3)cc2)c1

SMILES: O[C@H]1CC[C@H](Nc2ncc3nc(Nc4c(F)cc(F)cc4F)n([C@H]4CCOC4)c3n2)CC1
- % of control [9]: 91%

SMILES: CNC(=O)Nc1ccc(-c2nc(N3CC4CCC(C3)O4)c3cnn(C4CCC5(CC4)OCCO5)c3n2)cc1
- % of control [10]: 84%
